Source: patent publication US10015966B2, “Fungicidal pyrazole mixtures” (E I DU PONT DE NEMOURS AND COMPANY, priority 2012, dated 2018)
Read-outs that look alike come from different tables or passages of the source. Marks after values point to notes of the source that are not given here.

Tests used:
Assay type in all cases: in vivo
Botrytis cinerea = experiment: Test A: preventive spray on tomato seedlings, tomato Botrytis, visual disease rating; conditions: 200 ppm test suspension
Procedure: General protocol for preparing test suspensions for Tests A-I: the test compounds were first dissolved in acetone in an amount equal to 3% of the final volume and then suspended at the desired concentration (in ppm) in acetone and purified water (50/50 mix by volume) containing 250 ppm of the surfactant Trem® 014 (polyhydric alcohol esters). The resulting test suspensions were then used in Tests A-I. Each test was conducted in triplicate, and the results were averaged. Spraying a 200 ppm test suspension to the point of run-off on the test plants was the equivalent of a rate of about 800 g/ha. Unless otherwise indicated, the rating values indicate a 200 ppm test suspension was used. (An asterisk “*” next to the rating value indicates a 40 ppm test suspension was used.) The test suspension was sprayed to the point of run-off on tomato seedlings. The following day the seedlings were inoculated with a spore suspension of Botrytis cinerea (the causal agent of tomato Botrytis) and incubated in saturated atmosphere at 20° C. for 48 h, and then moved to a growth chamber at 24° C. for 3 additional days, after which time visual disease ratings were made. Results for Tests A-I are given in Table A. In the Table, a rating of 100 indicates 100% disease control and a rating of 0 indicates no disease control (relative to the controls). A hyphen (-) indicates no test results.

Phytophthora infestans = conditions: tomato late blight
Rhizoctonia solani = experiment: Test D: preventive spray on creeping bent grass seedlings, turf brown patch, disease rating; conditions: 200 ppm test suspension
Procedure: General protocol for preparing test suspensions for Tests A-I: the test compounds were first dissolved in acetone in an amount equal to 3% of the final volume and then suspended at the desired concentration (in ppm) in acetone and purified water (50/50 mix by volume) containing 250 ppm of the surfactant Trem® 014 (polyhydric alcohol esters). The resulting test suspensions were then used in Tests A-I. Each test was conducted in triplicate, and the results were averaged. Spraying a 200 ppm test suspension to the point of run-off on the test plants was the equivalent of a rate of about 800 g/ha. Unless otherwise indicated, the rating values indicate a 200 ppm test suspension was used. (An asterisk “*” next to the rating value indicates a 40 ppm test suspension was used.) The test suspension was sprayed to the point of run-off on creeping bent grass (Agrostis sp.) seedlings. The following day the seedlings were inoculated with a bran and mycelial slurry of Rhizoctonia solani (the causal agent of turf brown patch) and incubated in a saturated atmosphere at 27° C. for 48 h, and then moved to a growth chamber at 27° C. for 3 days, after which time disease ratings were made. Results for Tests A-I are given in Table A. In the Table, a rating of 100 indicates 100% disease control and a rating of 0 indicates no disease control (relative to the controls). A hyphen (-) indicates no test results.

[1] = system: Puccinia recondita f. sp. tritici; experiment: Test G: curative spray on inoculated wheat seedlings, wheat leaf rust, visual disease rating; conditions: 200 ppm test suspension
Procedure: General protocol for preparing test suspensions for Tests A-I: the test compounds were first dissolved in acetone in an amount equal to 3% of the final volume and then suspended at the desired concentration (in ppm) in acetone and purified water (50/50 mix by volume) containing 250 ppm of the surfactant Trem® 014 (polyhydric alcohol esters). The resulting test suspensions were then used in Tests A-I. Each test was conducted in triplicate, and the results were averaged. Spraying a 200 ppm test suspension to the point of run-off on the test plants was the equivalent of a rate of about 800 g/ha. Unless otherwise indicated, the rating values indicate a 200 ppm test suspension was used. (An asterisk “*” next to the rating value indicates a 40 ppm test suspension was used.) Wheat seedlings were inoculated with a spore suspension of Puccinia recondita f. sp. tritici (the causal agent of wheat leaf rust) and incubated in a saturated atmosphere at 20° C. for 24 h, and then moved to a growth chamber at 20° C. for 2 days. At the end of this time the test suspension was sprayed to the point of run-off, and then the seedlings were moved to a growth chamber at 20° C. for 4 days after which time visual disease ratings were made. […]

[2] = Single oral dose pharmacokinetics in rats, plasma and fat analysed by LC/MS (fat:plasma ratio); conditions: single dose via oral gavage, compared to corresponding compounds with a nonhydrogen substituent at the para position of the phenyl ring connected to R^1 and R^2
Procedure: The pharmacokinetic properties of compounds of Formula 1 can be measured using a wide variety of assay protocols known in the science of pharmacology. In one illustrative method involving a single oral dose, three male and three female rats receive a single dose of a test substance via oral gavage. Approximately 0.25 mL of blood is collected via tail vein immediately prior to dosing, and then at 0.25, 0.5, 1, 2, 4, 8, 12, 24 h and every 24 h thereafter until sacrifice. At sacrifice, fat is also collected to determine the fat:plasma ratio at sacrifice. Blood is collected into tubes that contain ethylenediaminetetracetic acid (EDTA) and centrifuged at 2500×g in order to separate plasma from blood cells. The plasma is then extracted by protein precipitation using, for example, acetonitrile and a protein precipitation plate (e.g., Strata Impact Protein Precipitation Plate, part number CEO-7565 of Phenomenex, Torrance, Calif., U.S.A.) following directions provided for the plate. Alternatively, the plasma is extracted just with acetonitrile, vortexed (i.e. mixed using a vortex mixer), and centrifuged to pellet the proteins. After removal of the proteins, the plasma is analyzed for parent compound and/or metabolites by liquid chromatography-mass spectrometry (LC/MS). The fat is homogenized and extracted by an organic solvent such as acetonitrile. The extract is then analyzed for parent compound and/or metabolites by LC/MS. The plasma pharmacokinetic data is then analyzed using nonlinear modeling software (e.g., WinNonlin™ from Pharsight, Cary, N.C., U.S.A.) to determine half-life of the administered compound in plasma, the time after administration when the maximum plasma concentration is reached (Tmax), the maximum plasma concentration (Cmax) and the area under the plasma concentration curve (AUC). As analysis of fat requires rat sacrifice, fat data is obtained at single time points (i.e. the time of rat sacrifice). However, by using multiple rats sacrificed after different intervals from time of dosing, such parameters as Cmax for fat are determined.

SMILES	pest or weed control at 200 ppm (Botrytis cinerea)	Test C rating (% disease control) (Phytophthora infestans; 200 ppm test suspension, preventive spray)	Test D rating (% disease control) (Rhizoctonia solani)	Test G rating (% disease control) [1]	Test C rating (% disease control) (Phytophthora infestans; asterisked rating: test suspension other than 200 ppm)	distribution into fat [2]
Cc1nn(C)c(Nc2ccccc2F)c1-c1ccc(F)cc1Cl [Compound 1, 4-(2-chloro-4-fluorophenyl)-N-(2-fluorophenyl)-1,3-dimethyl-1H-pyrazol-5-amine]	99%	0%	99%			
Cc1nn(C)c(Nc2c(F)cccc2F)c1-c1ccc(F)cc1Cl [Compound 2, 4-(2-chloro-4-fluorophenyl)-N-(2,6-difluorophenyl)-1,3-dimethyl-1H-pyrazol-5-amine]	100%			0%		
Cc1nn(C)c(Nc2c(F)cccc2Cl)c1-c1ccc(F)cc1Cl [Compound 3, 4-(2-chloro-4-fluorophenyl)-N-(2-chloro-6-fluorophenyl)-1,3-dimethyl-1H-pyrazol-5-amine]	100%			100%	0* %	significantly diminished distribution into fat
